Several values for one entry are separate records, joined by “and”; a condition that tells them apart may be missing. Equal values may be shown once. Marks after values point to notes of the source that are not given here. Non-standard residues stand in square brackets, D forms with d. Residues, ends and D or L forms follow the SMILES beside them. *: point of attachment. Asu = N[C@@H](CCCCCC(=O)O)C(=O)O; NHOH = ON*
Columns and labels:
HDAC3/NCoR2 [1] = biological target: T1, HDAC3/NCoR2 (Homo sapiens, UniProt O15379); assay: Recombinant HDAC µSPOT microarray binding assay;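 note: peptide spots on cellulose slides incubated with rising HDAC enzyme concentrations, imaged together, four-parameter logistic fit, EC50 is enzyme concentration giving half-maximal binding signal, two experiments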
T1 construct: HDAC3/NCoR2 (full length, C-terminal His tag, NCoR2 N-terminal GST tag); purchased BPS Bioscience 50003

HDAC8 [2] = biological target: T2, HDAC8 (Homo sapiens, UniProt Q9BY41); assay: Recombinant HDAC µSPOT microarray binding assay;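 note: peptide µSPOT slides incubated with varying HDAC enzyme concentrations, imaged signal intensity fitted by four-parameter variable-slope regression, EC50 is enzyme concentration giving half-maximal binding, pH 7.4 HEPES buffer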
T2 construct: HDAC8 (full length, C-terminal His tag, BPS Bioscience, cat. #: 50008); purchased BPS Bioscience 50008
T2 sequence (Q9BY41 1-377): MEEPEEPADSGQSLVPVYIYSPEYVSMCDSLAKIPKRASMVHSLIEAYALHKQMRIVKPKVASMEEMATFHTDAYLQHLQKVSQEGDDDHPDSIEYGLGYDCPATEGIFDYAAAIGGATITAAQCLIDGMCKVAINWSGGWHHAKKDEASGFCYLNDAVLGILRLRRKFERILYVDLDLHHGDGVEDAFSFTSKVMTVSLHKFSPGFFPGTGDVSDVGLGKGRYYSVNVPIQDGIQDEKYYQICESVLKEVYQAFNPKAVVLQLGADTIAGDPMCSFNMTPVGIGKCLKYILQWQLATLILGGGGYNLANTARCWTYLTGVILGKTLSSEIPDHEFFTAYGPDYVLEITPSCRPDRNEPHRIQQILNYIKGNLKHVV
Procedure: (§1) Experiments were performed twice, data were obtained with Array Analyze software (Active Motif), and data analysis and representation were performed with the GraphPad Prism 7 software. Outliers were curated manually and data were fitted to nonlinear regression [log(agonist) vs. response—variable slope (four parameters)]. […] Non-sigmoidal curves were denoted as not determined (N.D.) The pEC50 values were determined as the concentration of HDAC enzyme required for half-maximal binding signal.

HDAC2 [3] = biological target: T3, HDAC2 (Homo sapiens, UniProt Q92769); assay: HDAC inhibition assay (fluorogenic, Ac-Leu-Gly-Lys(Ac)-AMC); type: biochemical; details: for HDAC2 dose-response data (relative enzyme activity), Fig. 6 + S. Fig. 10: duplicate columns
T3 construct: HDAC2 (full length, C-terminal His tag, BPS Bioscience, cat. #: 50002); purchased BPS Bioscience 50002

HDAC1 [4] = biological target: T4, HDAC1 (Homo sapiens, UniProt Q13547); assay: Recombinant HDAC µSPOT microarray binding assay;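 note: slides with spotted peptides incubated with six HDAC concentrations in HEPES buffer pH 7.4, spot intensities fitted by four-parameter logistic, EC50 as enzyme concentration giving half-maximal binding signal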
T4 construct: HDAC1 (full length, C-terminal His tag, C-terminal FLAG tag, BPS Bioscience, cat. #: 50051); FLAG (C); purchased BPS Bioscience 50051
Procedure: as §1

HDAC2 [5] = biological target: T3, HDAC2; assay: Recombinant HDAC µSPOT microarray binding assay;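 note: Cellulose-bound peptide spots on slides incubated with six HDAC enzyme concentrations, binding intensity read, four-parameter variable-slope fit, EC50 is enzyme concentration giving half-maximal binding, in HEPES buffer pH 7.4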
HDAC1 [6] = biological target: T4, HDAC1; assay: HDAC inhibition assay (fluorogenic, Ac-Leu-Gly-Lys(Ac)-AMC); type: biochemical; details: for HDAC1 dose-response data (relative enzyme activity), Fig. 6 + S. Fig. 10: duplicate columns
HDAC3/NCoR2 [7] = biological target: T1, HDAC3/NCoR2; assay: as above; type: biochemical; details: for HDAC3 dose-response data (relative enzyme activity), Fig. 6 + S. Fig. 10: duplicate columns
HDAC8 [8] = biological target: T2, HDAC8; assay: HDAC inhibition assay (fluorogenic, Ac-Leu-Gly-Lys(Tfa)-AMC); type: biochemical; details: for HDAC8 dose-response data (relative enzyme activity, replicate values), Fig. 6 + S. Fig. 10: two replicate columns per inhibitor; for HDAC8 dose-response data (relative enzyme activity), Fig. 6 + S. Fig. 10: duplicate columns
HDAC6 = biological target: T5, HDAC6 (Homo sapiens, UniProt Q9UBN7); assay: HDAC inhibition assay (fluorogenic, Ac-Leu-Gly-Lys(Ac)-AMC); type: biochemical; details: HDAC6, replicates
T5 construct: HDAC6 (full length, BPS Bioscience, cat. #: 50056); purchased BPS Bioscience 50056
T5 sequence (Q9UBN7 1-1215): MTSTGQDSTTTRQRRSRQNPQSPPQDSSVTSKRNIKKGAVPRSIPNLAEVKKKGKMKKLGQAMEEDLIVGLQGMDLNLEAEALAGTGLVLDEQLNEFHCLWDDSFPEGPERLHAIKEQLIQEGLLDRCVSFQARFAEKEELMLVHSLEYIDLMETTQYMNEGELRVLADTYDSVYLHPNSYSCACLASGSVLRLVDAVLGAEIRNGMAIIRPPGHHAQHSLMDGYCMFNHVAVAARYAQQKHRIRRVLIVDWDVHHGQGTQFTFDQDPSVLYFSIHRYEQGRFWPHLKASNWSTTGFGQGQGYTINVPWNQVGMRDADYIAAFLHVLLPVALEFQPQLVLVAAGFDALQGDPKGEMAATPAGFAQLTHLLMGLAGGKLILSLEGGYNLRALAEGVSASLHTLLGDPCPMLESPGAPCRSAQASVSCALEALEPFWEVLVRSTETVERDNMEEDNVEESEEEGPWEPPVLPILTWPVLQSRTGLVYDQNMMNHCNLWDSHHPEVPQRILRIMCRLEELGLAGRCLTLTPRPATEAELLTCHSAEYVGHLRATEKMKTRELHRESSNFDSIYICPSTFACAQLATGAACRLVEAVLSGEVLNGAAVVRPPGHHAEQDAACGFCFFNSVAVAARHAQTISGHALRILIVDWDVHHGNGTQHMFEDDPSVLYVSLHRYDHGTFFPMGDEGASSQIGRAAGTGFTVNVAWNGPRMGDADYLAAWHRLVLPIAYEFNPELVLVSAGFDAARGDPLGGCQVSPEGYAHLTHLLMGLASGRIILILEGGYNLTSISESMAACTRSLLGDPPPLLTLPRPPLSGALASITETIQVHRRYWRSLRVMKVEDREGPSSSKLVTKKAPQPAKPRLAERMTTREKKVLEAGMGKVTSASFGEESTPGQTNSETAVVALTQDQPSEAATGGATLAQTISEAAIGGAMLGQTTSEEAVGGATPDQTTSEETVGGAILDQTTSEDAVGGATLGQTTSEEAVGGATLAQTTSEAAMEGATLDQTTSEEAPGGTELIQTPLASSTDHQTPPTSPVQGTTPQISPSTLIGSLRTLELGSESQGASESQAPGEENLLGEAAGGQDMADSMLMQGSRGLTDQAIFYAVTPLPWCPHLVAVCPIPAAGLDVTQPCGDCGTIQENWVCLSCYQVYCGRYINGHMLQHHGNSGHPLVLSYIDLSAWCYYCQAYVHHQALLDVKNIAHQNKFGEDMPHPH

[9] = log[inhibitor(M)] -10,5850266520292*, whole line marked with asterisks

T1 sequence (O15379 whole entry): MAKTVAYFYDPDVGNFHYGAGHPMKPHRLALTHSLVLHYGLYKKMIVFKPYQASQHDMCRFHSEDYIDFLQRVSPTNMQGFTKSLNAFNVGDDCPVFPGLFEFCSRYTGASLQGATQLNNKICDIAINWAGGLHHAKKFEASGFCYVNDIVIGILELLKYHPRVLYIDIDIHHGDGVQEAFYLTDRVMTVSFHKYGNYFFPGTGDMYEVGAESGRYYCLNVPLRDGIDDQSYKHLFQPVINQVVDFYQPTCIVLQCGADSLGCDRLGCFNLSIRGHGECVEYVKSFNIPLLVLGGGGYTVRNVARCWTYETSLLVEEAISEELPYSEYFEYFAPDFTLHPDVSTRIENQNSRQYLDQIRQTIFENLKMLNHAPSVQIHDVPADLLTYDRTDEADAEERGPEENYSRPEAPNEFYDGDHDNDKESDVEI
T1 sequence (Q9Y618 389-480 partner limits assumed): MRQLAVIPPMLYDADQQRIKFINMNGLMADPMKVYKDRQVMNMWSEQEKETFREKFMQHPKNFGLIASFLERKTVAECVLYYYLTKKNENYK
T4 sequence (Q13547 whole entry): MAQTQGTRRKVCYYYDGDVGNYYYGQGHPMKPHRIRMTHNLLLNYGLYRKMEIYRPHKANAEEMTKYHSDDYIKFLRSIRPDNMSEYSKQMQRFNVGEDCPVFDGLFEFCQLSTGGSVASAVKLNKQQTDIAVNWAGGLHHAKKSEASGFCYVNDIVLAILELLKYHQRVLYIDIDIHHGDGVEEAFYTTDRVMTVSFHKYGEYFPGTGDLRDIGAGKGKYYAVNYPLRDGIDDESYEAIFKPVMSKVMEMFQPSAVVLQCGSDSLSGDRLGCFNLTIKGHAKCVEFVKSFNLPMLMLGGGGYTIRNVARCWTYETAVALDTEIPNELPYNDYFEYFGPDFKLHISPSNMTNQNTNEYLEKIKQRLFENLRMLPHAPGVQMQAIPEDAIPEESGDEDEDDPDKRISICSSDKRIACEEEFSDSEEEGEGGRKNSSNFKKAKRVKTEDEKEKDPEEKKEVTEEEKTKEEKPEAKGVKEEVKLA
T3 sequence (Q92769 whole entry): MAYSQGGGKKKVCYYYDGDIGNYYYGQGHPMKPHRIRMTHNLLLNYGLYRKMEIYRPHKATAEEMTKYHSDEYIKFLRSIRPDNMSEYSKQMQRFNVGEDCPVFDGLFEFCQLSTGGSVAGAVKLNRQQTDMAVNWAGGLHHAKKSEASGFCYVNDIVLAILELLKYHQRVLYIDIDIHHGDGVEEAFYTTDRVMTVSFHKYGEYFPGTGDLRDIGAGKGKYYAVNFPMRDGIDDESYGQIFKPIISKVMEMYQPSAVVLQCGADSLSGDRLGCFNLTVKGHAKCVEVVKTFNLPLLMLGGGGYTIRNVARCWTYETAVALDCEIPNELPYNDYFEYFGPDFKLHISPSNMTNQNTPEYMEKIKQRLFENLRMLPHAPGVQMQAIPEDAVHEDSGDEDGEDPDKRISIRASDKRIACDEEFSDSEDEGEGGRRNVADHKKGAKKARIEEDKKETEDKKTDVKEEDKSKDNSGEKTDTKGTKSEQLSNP

## CC[C@H](C)[C@H](NC(=O)[C@@H](NC(=O)[C@H](CC(N)=O)NC(C)=O)C(C)C)C(=O)N[C@@H](CCCNC(=N)N)C(=O)N[C@@H](CC(=O)O)C(=O)N[C@@H](C)C(=O)N[C@H](C(=O)N[C@H](C(=O)N[C@@H](Cc1ccc(O)cc1)C(=O)N[C@H](C(=O)N[C@@H](CCC(=O)O)C(=O)N[C@@H](Cc1c[nH]cn1)C(=O)N[C@@H](C)C(=O)N[C@@H](CCCCCC(=O)NO)C(=O)N[C@@H](CCCNC(=N)N)C(=O)N[C@@H](CCCCN)C(=O)N[C@@H](Cc1c[nH]c2ccccc12)C(N)=O)[C@@H](C)O)[C@@H](C)O)C(C)C [17a] (Ac-NVIRDAVTYTEHA[Asu](NHOH)RKW-NH2)
HDAC3/NCoR2 [1]
  EC50: 3.16 nM
HDAC8 [2]
  EC50: > 25.1 nM
HDAC2 [3]; log[inhibitor(M)] -5
  HDAC2 dose-response data (relative enzyme activity), Fig. 6 + S. Fig. 10: 11.53 and 14.13
HDAC2 [3]; log[inhibitor(M)] -5.69897
  HDAC2 dose-response data (relative enzyme activity), Fig. 6 + S. Fig. 10: 38.85 and 44.3
HDAC2 [3]; log[inhibitor(M)] -7.79588
  HDAC2 dose-response data (relative enzyme activity), Fig. 6 + S. Fig. 10: 99.37 and 102.1
HDAC2 [3]; [9]
  HDAC2 dose-response data (relative enzyme activity), Fig. 6 + S. Fig. 10: 100,76* and 101,65*
HDAC2 [3]; resynthesized peptide in solution, Cheng-Prusoff, n = 2
  Ki: 183 ± 1 nM
HDAC1 [4]
  EC50: > 25.1 nM
HDAC2 [5]
  EC50: 2 nM
HDAC1 [6]
  Ki: 198 ± 1 nM
HDAC1 [6]; log[inhibitor(M)] -4.30103
  HDAC1 dose-response data (relative enzyme activity), Fig. 6 + S. Fig. 10: 2.18 and 2.15
HDAC1 [6]; log[inhibitor(M)] -5
  HDAC1 dose-response data (relative enzyme activity), Fig. 6 + S. Fig. 10: 8.98 and 8.99
HDAC1 [6]; log[inhibitor(M)] -5.69897
  HDAC1 dose-response data (relative enzyme activity), Fig. 6 + S. Fig. 10: 31.34 and 30.75
HDAC1 [6]; log[inhibitor(M)] -6.39794
  HDAC1 dose-response data (relative enzyme activity), Fig. 6 + S. Fig. 10: 69.51 and 67.92
HDAC1 [6]; log[inhibitor(M)] -7.09691
  HDAC1 dose-response data (relative enzyme activity), Fig. 6 + S. Fig. 10: 91.81 and 91.08
HDAC1 [6]; log[inhibitor(M)] -7.79588
  HDAC1 dose-response data (relative enzyme activity), Fig. 6 + S. Fig. 10: 100.43 and 97.85
HDAC1 [6]; log[inhibitor(M)] -8.49485
  HDAC1 dose-response data (relative enzyme activity), Fig. 6 + S. Fig. 10: 101.87 and 100.28
HDAC1 [6]; log[inhibitor(M)] -9.19382
  HDAC1 dose-response data (relative enzyme activity), Fig. 6 + S. Fig. 10: 101.68 and 99.1
HDAC1 [6]; log[inhibitor(M)] -9.89279
  HDAC1 dose-response data (relative enzyme activity), Fig. 6 + S. Fig. 10: 102.02 and 100.95
HDAC1 [6]; [9]
  HDAC1 dose-response data (relative enzyme activity), Fig. 6 + S. Fig. 10: 100,29* and 101,16*
HDAC3/NCoR2 [7]
  Ki: 90.7 ± 0.3 nM
HDAC3/NCoR2 [7]; log[inhibitor(M)] -4.30103
  HDAC3 dose-response data (relative enzyme activity), Fig. 6 + S. Fig. 10: 1.48 and 1.63
HDAC3/NCoR2 [7]; log[inhibitor(M)] -5
  HDAC3 dose-response data (relative enzyme activity), Fig. 6 + S. Fig. 10: 5.89 and 6.06
HDAC3/NCoR2 [7]; log[inhibitor(M)] -5.69897
  HDAC3 dose-response data (relative enzyme activity), Fig. 6 + S. Fig. 10: 20.29 and 20.52
HDAC3/NCoR2 [7]; log[inhibitor(M)] -6.39794
  HDAC3 dose-response data (relative enzyme activity), Fig. 6 + S. Fig. 10: 47.71 and 47.78
HDAC3/NCoR2 [7]; log[inhibitor(M)] -7.09691
  HDAC3 dose-response data (relative enzyme activity), Fig. 6 + S. Fig. 10: 75.88 and 76.54
HDAC3/NCoR2 [7]; log[inhibitor(M)] -7.79588
  HDAC3 dose-response data (relative enzyme activity), Fig. 6 + S. Fig. 10: 91.62 and 91.95
HDAC3/NCoR2 [7]; log[inhibitor(M)] -8.49485
  HDAC3 dose-response data (relative enzyme activity), Fig. 6 + S. Fig. 10: 95.02 and 96.22
HDAC3/NCoR2 [7]; log[inhibitor(M)] -9.19382
  HDAC3 dose-response data (relative enzyme activity), Fig. 6 + S. Fig. 10: 95.35 and 97.08
HDAC3/NCoR2 [7]; log[inhibitor(M)] -9.89279
  HDAC3 dose-response data (relative enzyme activity), Fig. 6 + S. Fig. 10: 93.78 and 97.79
HDAC3/NCoR2 [7]; [9]
  HDAC3 dose-response data (relative enzyme activity), Fig. 6 + S. Fig. 10: 97,93* and 99,33*
HDAC8 [8]
  Ki: 7640 ± 60 nM
HDAC8 [8]; Inhibitor conc [M] -8.49485 (log)
  HDAC8 dose-response data (relative enzyme activity, replicate values), Fig. 6 + S. Fig. 10: 101.42 and 103.54
HDAC8 [8]; Inhibitor conc [M] -9.19382 (log)
  HDAC8 dose-response data (relative enzyme activity, replicate values), Fig. 6 + S. Fig. 10: 101.25 and 102.69
HDAC8 [8]; Inhibitor conc [M] given as -7.09691 (log)
  HDAC8 dose-response data (relative enzyme activity, replicate values), Fig. 6 + S. Fig. 10: 100.44 and 104.26
HDAC8 [8]; Inhibitor conc [M] given as -7.79588 (log)
  HDAC8 dose-response data (relative enzyme activity, replicate values), Fig. 6 + S. Fig. 10: 103.27 and 103.5
HDAC8 [8]; Inhibitor conc [M] given as -9.89279 (log)
  HDAC8 dose-response data (relative enzyme activity, replicate values), Fig. 6 + S. Fig. 10: 103.01 and 103.7
HDAC8 [8]; Inhibitor conc [M] given as -10.585 (log)
  HDAC8 dose-response data (relative enzyme activity, replicate values), Fig. 6 + S. Fig. 10: 99,9* and 101,68*
HDAC8 [8]; Inhibitor conc [M] -4.30103
  HDAC8 dose-response data (relative enzyme activity), Fig. 6 + S. Fig. 10: 25.68 and 25
HDAC8 [8]; Inhibitor conc [M] -5
  HDAC8 dose-response data (relative enzyme activity), Fig. 6 + S. Fig. 10: 60.57 and 62.81
HDAC8 [8]; Inhibitor conc [M] -5.69897
  HDAC8 dose-response data (relative enzyme activity), Fig. 6 + S. Fig. 10: 94.41 and 91.83
HDAC8 [8]; Inhibitor conc [M] -6.39794
  HDAC8 dose-response data (relative enzyme activity), Fig. 6 + S. Fig. 10: 100.36 and 103.01
HDAC6; log[inhibitor(M)] -4.30103
  residual enzymatic activity relative to control wells: 0.85 and 0.89
HDAC6; log[inhibitor(M)] -5
  residual enzymatic activity relative to control wells: 2.67 and 3.1
HDAC6; log[inhibitor(M)] -5.69897
  residual enzymatic activity relative to control wells: 11.05 and 12.51
HDAC6; log[inhibitor(M)] -6.39794
  residual enzymatic activity relative to control wells: 38.36 and 40.68
HDAC6; log[inhibitor(M)] -7.09691
  residual enzymatic activity relative to control wells: 72.92 and 74.07
HDAC6; log[inhibitor(M)] -7.79588
  residual enzymatic activity relative to control wells: 92.5 and 90.62
HDAC6; log[inhibitor(M)] -8.49485
  residual enzymatic activity relative to control wells: 97.52 and 97.55
HDAC6; log[inhibitor(M)] -9.19382
  residual enzymatic activity relative to control wells: 99.98 and 98.59
HDAC6; log[inhibitor(M)] -9.89279
  residual enzymatic activity relative to control wells: 98.46 and 98.12
HDAC6; log[inhibitor(M)] -10.585
  residual enzymatic activity relative to control wells: 98,71* and 97,59*

Source: publication PMC7782793, “Hydroxamic acid-modified peptide microarrays for profiling isozyme-selective interactions and inhibition of histone deacetylases” (Nature Communications, 2021)
